The record followed here is the Kinase Knowledgebase extract (Sharma et al. 2016).

In general, IC50 refers to the concentration at which inhibition is half-maximal. Low readings indicate higher potency, high ones lower potency.

Structures are written as SMILES.

In this test the target is CDK2 (human) (UniProt P24941). The experiment in a line: Enzyme Assay.
As to `CN1CCC(N(C)C(=O)c2ccc(C(=O)Nc3ccc(-n4cncn4)c(F)c3)o2)CC1`, the 50% inhibitory concentration (IC50) was ≥ 40 µM.

In turn, `CNCc1ccc(NC(=O)c2ccc(C(=O)Nc3ccc(-n4cncn4)cc3)s2)c(C)c1` had an IC50 of 1 to 40 µM.

Turning to `COC[C@H](C)NC(=O)c1ccc(C(=O)Nc2ccc(-n3cncn3)cc2)s1`, the IC50 is ≥ 40 µM.

With `NS(=O)(=O)c1ccc(NC(=O)c2ccc(C(=O)Nc3ccc(-n4cncn4)cc3)s2)cc1`, the IC50 was ≥ 40 µM.

In the case of `O=C(Nc1ccc(-n2cncn2)cc1)c1ccc(C(=O)NC2CCCC2)s1`, the IC50 lay in the range of 1 to 40 µM.

Take `COc1ccc(NC(=O)c2ccc(C(=O)Nc3ccc4ncccc4c3)s2)c(C)c1`: the IC50 is ≥ 40 µM.

With `O=C(Nc1ccc(-n2cncn2)cc1)c1ccc(C(=O)NC2CCNCC2)s1`, the IC50 is ≥ 40 µM.

For `CN1CCCC1CCNC(=O)c1ccc(C(=O)Nc2ccc(-n3cncn3)cc2)s1` (stereo not drawn), the half-maximal inhibitory concentration (IC50) is ≥ 40 µM.

Turning to `O=C(NC[C@@H]1CCCO1)c1ccc(C(=O)Nc2ccc(-n3cncn3)cc2)s1`, the IC50 was ≥ 40 µM.

For the molecule `CN(Cc1ccco1)C(=O)c1ccc(C(=O)Nc2ccc(-n3cncn3)cc2)s1`, the IC50 was ≥ 40 µM.

Regarding `Cc1cc(N2CCOCC2)ccc1NC(=O)c1ccc(C(=O)Nc2ccc(-n3cncn3)cc2)s1`, the IC50 was ≤ 1 µM.

For the molecule `Cc1cc(CN(C)C)ccc1NC(=O)c1ccc(C(=O)Nc2ccc(-n3cncn3)c(F)c2)s1`, the IC50 was 1 to 40 µM.

As to `COc1ccc(NC(=O)c2ccc(C(=O)Nc3ccc(-n4cncn4)c(F)c3)o2)c(C)c1`, the IC50 is ≤ 1 µM.

For the molecule `O=C(NCc1ccncc1)c1ccc(C(=O)Nc2ccc(-n3cncn3)cc2)s1`, the IC50 is ≥ 40 µM.

As for `Cc1cnc(NC(=O)c2ccc(C(=O)Nc3ccc(-n4cncn4)cc3)s2)s1`, the IC50 was ≥ 40 µM.

For `Cc1ccnc(NC(=O)c2ccc(C(=O)Nc3ccc(-n4cncn4)cc3)s2)c1`, the IC50 was ≥ 40 µM.

Take `COc1ccc(NC(=O)c2ccc(C(=O)Nc3ccc(-c4nc[nH]n4)c(F)c3)o2)c(C)c1`: the IC50 is ≤ 1 µM.

As to `O=C(Nc1ccc(-n2cncn2)c(F)c1)c1ccc(C(=O)Nc2ccccc2Oc2cccnc2)s1`, the 50% inhibitory concentration (IC50) was ≥ 40 µM.

For `O=C(Nc1ccc(-n2cncn2)cc1)c1ccc(C(=O)NC2CCC2)s1`, the half-inhibitory concentration (IC50) is ≥ 40 µM.

As for `COc1ccc(NC(=O)c2ccc(C(=O)Nc3ccc(-c4ncn(C)n4)cc3)s2)c(C)c1`, the IC50 was ≥ 40 µM.

As for `O=C(NCc1nc2ccccc2[nH]1)c1ccc(C(=O)Nc2ccc(-n3cncn3)cc2)s1`, the IC50 was ≥ 40 µM.

On to `CCOc1ccccc1NC(=O)c1ccc(C(=O)Nc2ccc(-n3cncn3)c(F)c2)s1`, for which the IC50 was ≥ 40 µM.

As to `COc1ccc(NC(=O)c2ccc(C(=O)Nc3ccc(N4CCNCC4)cc3)s2)c(C)c1`, the IC50 was ≥ 40 µM.

Turning to `O=C(NCc1ccccc1)c1ccc(C(=O)Nc2ccc(-n3cncn3)cc2)s1`, the IC50 was in the range of 1 to 40 µM.

For `CN(C)CCCNC(=O)c1ccc(C(=O)Nc2ccc(-n3cncn3)cc2)s1`, the 50% inhibitory concentration (IC50) is ≥ 40 µM.

As to `COc1ccc(NC(=O)c2ccc(C(=O)Nc3ccc(N4CCOCC4)nc3)s2)c(C)c1`, the IC50 is ≥ 40 µM.

As to `Cc1cc(NC(=O)c2ccc(C(=O)Nc3ccc(-n4cncn4)cc3)s2)n(C)n1`, the IC50 lay within 1 to 40 µM.

`O=C(Nc1ccc(-n2cncn2)c(F)c1)c1ccc(C(=O)Nc2ccccc2Cl)s1`: the IC50 is ≤ 1 µM.

For the molecule `CCCCN(C)C(=O)c1ccc(C(=O)Nc2ccc(-n3cncn3)cc2)s1`, the IC50 is ≥ 40 µM.

Regarding `Cn1nc(-c2ccc(Cl)cc2)cc1NC(=O)c1ccc(C(=O)Nc2ccc(-n3cncn3)cc2)s1`, the IC50 is ≥ 40 µM.

`O=C(Nc1ccncc1)c1ccc(C(=O)Nc2ccc(-n3cncn3)cc2)o1` yielded an IC50 of 1 to 40 µM.

With `O=C(Nc1ccc(-n2cncn2)cc1)c1ccc(C(=O)Nc2ccccn2)s1`, the half-maximal inhibitory concentration (IC50) was ≥ 40 µM.

For the molecule `COc1cccc(NC(=O)c2ccc(C(=O)Nc3ccc(-n4cncn4)cc3)s2)c1`, the concentration for half-maximal inhibition (IC50) was ≥ 40 µM.

In the case of `COc1ccc(NC(=O)c2ccc(C(=O)Nc3ccc(-n4cncn4)c(F)c3)s2)c(C)c1`, the IC50 was ≤ 1 µM.

In the case of `COc1ccc(C(=O)Nc2ccc(C(=O)Nc3ccc(-c4nc[nH]n4)c(F)c3)s2)c(C)c1`, the concentration for half-maximal inhibition (IC50) was ≤ 1 µM.

Consider `COc1ccccc1NC(=O)c1ccc(C(=O)Nc2ccc(-n3cncn3)c(F)c2)s1`, for which the IC50 was ≥ 40 µM.

Take `O=C(NCCc1ccccc1)c1ccc(C(=O)Nc2ccc(-n3cncn3)cc2)s1`: the IC50 is ≥ 40 µM.

Consider `COc1ccc(NC(=O)c2ccc(C(=O)Nc3ccc(N4CCOCC4)cc3)s2)c(C)c1`, for which the IC50 is ≥ 40 µM.

Take `COc1ccc(C(=O)Nc2ccc(C(=O)N3CCC(Oc4cnccn4)CC3)o2)cc1`: the IC50 was ≥ 40 µM.

For the molecule `CC(CN(C)C)NC(=O)c1ccc(C(=O)Nc2ccc(-n3cncn3)cc2)s1` (stereo not drawn), the IC50 was ≥ 40 µM.

On to `CN(C)CCNC(=O)c1ccc(C(=O)Nc2ccc(-n3cncn3)c(F)c2)o1`, for which the IC50 is ≥ 40 µM.

As to `COc1ccc(Cl)cc1NC(=O)c1ccc(C(=O)Nc2ccc(-n3cncn3)cc2)s1`, the half-maximal inhibitory concentration (IC50) was 1 to 40 µM.

In the case of `COc1ccc(NC(=O)c2ccc(C(=O)Nc3ccc(-c4nc[nH]n4)c(F)c3)s2)c(C)c1`, the IC50 was ≤ 1 µM.

`O=C(Nc1ccc(-n2cncn2)cc1)c1ccc(C(=O)Nc2nc3ccccc3s2)s1` gave an IC50 of 1 to 40 µM.

Regarding `O=C(NCCN1CCCCC1)c1ccc(C(=O)Nc2ccc(-n3cncn3)cc2)s1`, the IC50 is ≥ 40 µM.

For `COc1ccc(NC(=O)c2ccc(C(=O)Nc3ccc4c(c3)OCO4)s2)c(C)c1`, the IC50 is ≥ 40 µM.

`COc1ccc(NC(=O)c2ccc(C(=O)N3CCC(c4ccccn4)C3)s2)c(C)c1` (stereo not drawn) gave an IC50 of 1 to 40 µM.

`Nc1ccc(CNC(=O)c2ccc(C(=O)Nc3ccc(-n4cncn4)cc3)s2)cn1`: the concentration for half-maximal inhibition (IC50) is ≥ 40 µM.

As for `Cc1cc(NC(=O)c2ccc(C(=O)Nc3ccc(-n4cncn4)cc3)s2)ccc1F`, the IC50 is ≥ 40 µM.

Regarding `Cc1cc(Cn2ccnc2)ccc1NC(=O)c1ccc(C(=O)Nc2ccc(-n3cncn3)c(F)c2)s1`, the IC50 is ≤ 1 µM.

Regarding `COc1ccc(NC(=O)c2ccc(C(=O)Nc3ccc(C(N)=O)cc3)s2)c(C)c1`, the 50% inhibitory concentration (IC50) is ≥ 40 µM.

For the molecule `O=C(Nc1ccc(-n2cncn2)c(F)c1)c1ccc(C(=O)Nc2ccccc2-c2ccccc2)s1`, the IC50 was 1 to 40 µM.

`COc1ccc(N(C)C(=O)c2ccc(C(=O)Nc3ccc(-n4cncn4)cc3)s2)cc1` displayed an IC50 of 1 to 40 µM.

For `COc1ccc(C(=O)Nc2ccc(C(=O)N3CCC(c4ccccn4)C3)o2)c(C)c1` (stereo not drawn), the IC50 is ≥ 40 µM.

Consider `Cc1cc(CN2CCN(C)CC2)ccc1NC(=O)c1ccc(C(=O)Nc2ccc(-n3cncn3)cc2)s1`, for which the IC50 was ≤ 1 µM.

Take `Cc1cc(N[C@H]2CCNC2)ccc1NC(=O)c1ccc(C(=O)Nc2ccc(-n3cncn3)c(F)c2)s1`: the concentration for half-maximal inhibition (IC50) was ≤ 1 µM.

Regarding `O=C(Nc1ccc(-n2cncn2)c(F)c1)c1ccc(C(=O)Nc2ccccc2Oc2ccccc2)s1`, the concentration for half-maximal inhibition (IC50) was ≥ 40 µM.

As to `O=C(Nc1ccc(C(=O)Nc2ccc(-n3cncn3)cc2)s1)c1ccccc1`, the half-inhibitory concentration (IC50) was ≤ 1 µM.

Turning to `COc1ccc(NC(=O)c2ccc(C(=O)Nc3ccc(-n4cncn4)cc3)o2)cc1`, the IC50 is ≤ 1 µM.

As for `COc1ccc(C(=O)Nc2ccc(C(=O)Nc3ccc(-n4cncn4)cc3)o2)c(C)c1`, the IC50 was ≥ 40 µM.

Take `CN1CCC(NC(=O)c2ccc(C(=O)Nc3ccc(-n4cncn4)c(F)c3)o2)CC1`: the IC50 is ≥ 40 µM.

Regarding `COc1ccc(NC(=O)c2ccc(C(=O)Nc3ccc(-c4c(C)noc4C)cc3)s2)c(C)c1`, the IC50 was ≥ 40 µM.

`COc1ccc(NC(=O)c2ccc(C(=O)Nc3ccc(-n4cncn4)cc3)s2)cc1Cl` displayed an IC50 of 1 to 40 µM.
